Test results taken from US20250099420A1, “SMALL MOLECULE MODULATORS OF GPR139 COMPLEX” (University of Florida Research Foundation, Incorporated, priority 2022, published 2025).
Where two headings read alike, the source gives them in different places.

Assays:
[1] = target: T1, GPR139 (Homo sapiens, UniProt Q6DWJ6); test: GPR139 Agonist titration / agonist counterscreen assay (calcium detection, HEK-GPR139 cells); assay type: cell-based; set-up: expressed in transfected cells; host or cells: HEK Aequorin cells, Maxcyte transient transfection; conditions: GPR139 Agonist Activity; for Averaged Max % Response (±St. Dev.): activity relative to known control; for EC50: read-out: EC50
T1 sequence (Q6DWJ6 1-353): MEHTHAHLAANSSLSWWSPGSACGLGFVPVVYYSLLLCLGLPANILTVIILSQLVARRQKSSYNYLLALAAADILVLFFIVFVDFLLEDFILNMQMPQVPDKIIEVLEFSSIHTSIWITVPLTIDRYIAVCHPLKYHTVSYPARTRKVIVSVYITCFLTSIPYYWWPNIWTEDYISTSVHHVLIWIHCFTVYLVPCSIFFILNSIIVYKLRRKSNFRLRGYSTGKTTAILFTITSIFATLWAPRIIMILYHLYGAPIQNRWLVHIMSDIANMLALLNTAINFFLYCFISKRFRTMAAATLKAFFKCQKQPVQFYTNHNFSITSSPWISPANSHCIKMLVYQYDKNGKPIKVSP
Method: GPR activity was assessed using a calcium detection assay. […] Negative control samples were treated with DMSO. […] Intracellular calcium was measured using Calcium 5.

[2] = tested on: parental HEK cells; test: HEK parental Agonist Counterscreen Assay (non-transfected cells); assay type: cell-based; conditions: for Averaged Max % Response (±St. Dev.): activity relative to known control
Source text: The high control for the agonist counterscreen was Forskolin not acetylcholine.

[3] = values printed in E-notation without unit
[4] = Homo sapiens, HEK293, HEK Agonist Activity section of Table 4 (parental HEK counterscreen)
[5] = Homo sapiens, HEK293, HEK Agonist Activity, parental non-transfected HEK cells

Compound	Averaged Max % Response (±St. Dev.) [1]	Lipophilic Efficiency (logD) ([1]; based on logD)	Lipophilic Efficiency (logP) ([1]; based on logP)	Hill Slope ([1]; fitted dose-response curve)	Efficiency Ligand ([1]; ligand efficiency)	EC50 [1, 3]	Lipophilic Efficiency (logD) ([2]; HEK Agonist Activity section)	Lipophilic Efficiency (logP) ([2]; HEK Agonist Activity section)	Efficiency Ligand [1]	Hill Slope [1]	Lipophilic Efficiency (logD) [1]	Lipophilic Efficiency (logP) [1]	EC50 ([1]; HEK-GPR139 cells)	Lipophilic Efficiency (logD) ([2]; HEK Agonist Activity)	Lipophilic Efficiency (logP) ([2]; HEK Agonist Activity)	Averaged Max % Response (±St. Dev.) ([2]; HEK Agonist Activity section)	EC50 [2, 4]	Averaged Max % Response (±St. Dev.) ([2]; HEK Agonist Activity)	EC50 ([2]; HEK Agonist Activity, parental non-transfected HEK cells)	EC50 [2, 5]
CC(C)C1CC(=O)[C@@H]2C[C@@H](CC2C(=O)CC2CCOc3ccccc3C2)C2C=CC(=C2)CCC(=O)[C@@H](Cc2ccccc2)NC1=O (stereo partly shown) [SR-05000709044]	99.08 ± 8.57%	6.97	6.95	0.79	0.24	13.8 nM	–	–	–	–	–	–	–	3.96	3.94	–	–	−2.44 ± 4.17%	> 14100 nM	–
O=C(Cn1ccc([N+](=O)[O-])n1)NCCc1ccc(Cl)cc1 [SR-01000299915]	99.72 ± 18.10%	5.86	5.86	1.13	0.55	5 nM	–	–	–	–	–	–	–	2.40	2.40	–	–	2.39 ± 2.18%	–	> 14100 nM
CCCCC(O)CCNC(=O)C1CC(=O)N(CCc2ccc(C)cc2)C1 (stereo not shown) [SR-01000145701]	114.02 ± 14.51%	–	–	–	–	–	4.13	2.54	0.34	0.99	5.67	4.07	414 nM	–	–	10.54 ± 1.83%	> 14100 nM	–	–	–
COc1ccc(C)cc1NC(=O)NNC(=O)C(C)Oc1ccc(F)cc1Cl (stereo not shown) [SR-01000277633]	93.18 ± 13.55%	–	–	–	–	–	1.40	1.38	0.33	1.11	2.85	2.82	508 nM	–	–	−5.71 ± 6.76%	> 14100 nM	–	–	–

Now from value to molecule, other results behind:

Averaged Max % Response (±St. Dev.) [1]	Lipophilic Efficiency (logD) ([1]; based on logD)	Lipophilic Efficiency (logP) ([1]; based on logP)	Hill Slope ([1]; fitted dose-response curve)	Efficiency Ligand ([1]; ligand efficiency)	EC50 [1, 3]	Lipophilic Efficiency (logD) ([2]; HEK Agonist Activity section)	Lipophilic Efficiency (logP) ([2]; HEK Agonist Activity section)	Efficiency Ligand [1]	Hill Slope [1]	Lipophilic Efficiency (logD) [1]	Lipophilic Efficiency (logP) [1]	EC50 ([1]; HEK-GPR139 cells)	Lipophilic Efficiency (logD) ([2]; HEK Agonist Activity)	Lipophilic Efficiency (logP) ([2]; HEK Agonist Activity)	Compound	Averaged Max % Response (±St. Dev.) ([2]; HEK Agonist Activity section)	EC50 [2, 4]	Averaged Max % Response (±St. Dev.) ([2]; HEK Agonist Activity)	EC50 ([2]; HEK Agonist Activity, parental non-transfected HEK cells)	EC50 [2, 5]
71.94 ± 4.54%	2.76	2.76	0.57	0.45	197 nM	0.91	0.91	–	–	–	–	–	–	–	O=C(NCCn1ccc2ccccc21)c1cccc(Br)c1 [SR-01000124135]	7.54 ± 4.78%	> 14100 nM	–	–	–
112.85 ± 32.26%	–	–	–	–	–	1.73	1.58	0.40	1.13	3.44	3.29	272 nM	–	–	Cc1ccccc1-c1nnc(CN2CCc3ccccc3C2)o1 [SR-01000162178]	25.44 ± 6.84%	> 14100 nM	–	–	–
63.10 ± 2.62%	–	–	–	–	–	1.05	1.05	0.26	1.07	1.89	1.89	–	–	–	CCOC(=O)N1CCC2=C(CC(NC(=O)Cc3cccc4ccccc34)=C2C(C)=O)C1 [SR-01000011241]	1.28 ± 10.93%	> 14200 nM	–	–	–
94.34 ± 21.26%	5.44	5.43	0.66	0.36	–	3.09	3.08	–	–	–	–	–	–	–	Cc1ccc(OCC(=O)NNC(=O)CN(C)S(=O)(=O)c2ccc(C)cc2)cc1 [SR-01000069435]	14.76 ± 3.78%	> 14600 nM	–	–	–
122.23 ± 2.65%	3.53	3.53	0.24	0.44	29.1 nM	–	–	–	–	–	–	–	0.84	0.84	Cc1ccc(SCC(=O)Nc2nnc(-c3ccccc3Cl)o2)cc1 [SR-01000021416]	–	–	23.13 ± 4.18%	–	> 14100 nM
